Assay results as given in patent US20250171434A1, “SEC61 INHIBITORS AND USE THEREOF” (KEZAR LIFE SCIENCES, INC., priority 2022, published 2025).
Read-outs that look alike come from different tables or passages of the source.

How the values were obtained:
[1] = system: IL-2-FL/Gaussia Luciferase; experiment: Dox Inducible IL2-FL-Gluc Assay; type: cell-based
Procedure, shortened: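 Reporter is Gaussia luciferase fused to the 3′ end of full-length IL-2 (aa 1-153), expressed from a doxycycline-inducible T-REx construct in stably selected Flp-In 293 cells. Compounds were co-added with doxycycline and incubated at 37° C, 5% CO2.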

[2] = system: multiple myeloma cell line NCI-H929; experiment: H929 Cell Viability Assay; type: cell-based, human; conditions: NCI-H929 cells, 48 hours, Celltiter-Glo; for EC50: Homo sapiens, read-out: 48 hr H929 Viability Celltiter-Glo: Mean EC50
Procedure, shortened: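 Plate the myeloma cells in RPMI 1640 with 10% FBS, add serially diluted compound, incubate for 48 hours at 37° C, then add CellTiter-Glo and read luciferase signal.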

[3] = Liver Microsome Stability Assay, human; type: in vitro ADME; conditions: human liver microsomes 1.0 mg/mL, 1.0 uM compound, 37° C., 1 mM NADPH
Procedure, shortened: (§1)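 Stability was judged from samples quenched at 0 and 30 minutes after incubating 1.0 uM compound with 1.0 mg/mL liver microsomes at 37° C, plus or minus 1 mM NADPH, in 0.1 M potassium phosphate containing 0.4% DMSO.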

[4] = system: multiple myeloma cell line U266B1; experiment: U266 Cell Viability Assay; type: cell-based; conditions: Homo sapiens
Procedure, shortened: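 48 h treatment, 37° C./5% CO2, RPMI 1640 + 10% FBS; viability by CellTiter-Glo luminescence.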

[5] = Liver Microsome Stability Assay, mouse; type: in vitro ADME; conditions: mouse liver microsomes 1.0 mg/mL, 1.0 uM compound, 37° C., 1 mM NADPH
Procedure, shortened: as §1

[6] = Liver Microsome Stability Assay, rat; type: in vitro ADME; conditions: rat liver microsomes 1.0 mg/mL, 1.0 uM compound, 37° C., 1 mM NADPH
Procedure, shortened: as §1

[7] = system: PD1-ss+10aa/Gaussia Luciferase; experiment: Dox-Induced PD1-ss-Gluc Assay; type: cell-based
Procedure, shortened: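 Stable Flp-In 293 T-REx cells carried a doxycycline-inducible construct of Gaussia luciferase fused to the PD1 signal sequence plus 10 amino acids. Cells were plated the day before, then treated with compound dilutions in DMSO/media containing doxycycline at 37 °C, 5% CO2.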

[8] = Liver Microsome Stability Assay, monkey; type: in vitro ADME; conditions: monkey liver microsomes 1.0 mg/mL, 1.0 uM compound, 37° C., 1 mM NADPH
Procedure, shortened: as §1

[9] = system: IL6R-ss+10aa/Gaussia Luciferase; experiment: Dox-induced IL-6R-ss-Gluc Assay; type: cell-based
Procedure, shortened: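 Flp-In 293 T-REx cells stably carrying a doxycycline-inducible IL6R signal sequence+10 aa fused to Gaussia luciferase. Cells plated the day before; compound dilutions added in DMSO/media containing doxycycline and incubated at 37 °C, 5% CO2.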

CD47(ss + 10)Gluc = experiment: Dox-Induced CD47-ss-Gluc Assay; type: cell-based
[10] = Flp-In 293 T-REx cells, 24 hours with doxycycline; Table 1; read-out: 24 hr Dox Inducible IL2FLGluc 293FRT/TO: Mean IC50
[11] = ratio of IC50s IL2/PD1; Table 1
[12] = U-266, U266B1 cells, 48 hours, Celltiter-Glo, read-out: 48 hr U266 Viability Celltiter-Glo: Mean EC50
[13] = Flp-In 293 T-REx cells, 24 hours with doxycycline; Table 1; read-out: 24 hr Dox Inducible PD1ssGluc 293FRT/TO: Mean IC50
[14] = Flp-In 293 T-REx cells, 24 hours with doxycycline; Table 1; read-out: 24hr Dox Inducible IL6R(ss + 10)Gluc 293FRT/TO: Mean IC50
[15] = ratio of IC50s IL6R/PD1; Table 1
[16] = Flp-In 293 T-REx cells, 24 hours with doxycycline; Table 1; read-out: 24 hr Dox Inducible CD47(ss + 10)Gluc 293FRT/TO: Mean IC50

IC50 [1, 10] [µM] | EC50 [2] [µM] | Liver Microsome Stability (Multiple Species): Human - % Remaining after 30 min w/ NADPH (%) [3] [%] | EC50 [4, 12] [nM] | Liver Microsome Stability (Multiple Species): Mouse - % Remaining after 30 min w/ NADPH (%) [5] [%] | Liver Microsome Stability (Multiple Species): Rat - % Remaining after 30 min w/ NADPH (%) [6] [%] | IC50 [7, 13] [µM] | Liver Microsome Stability (Multiple Species): Monkey - % Remaining after 30 min w/ NADPH (%) [8] [%] | IC50 [9, 14] [µM] | IC50 (CD47(ss + 10)Gluc; [16]) [µM] | Compound | 24 hr Dox Inducible IL2FLGluc 293FRT/TO: IL2/PD1 [1, 11] | 24hr Dox Inducible IL6R(ss + 10)Gluc 293FRT/TO: IL6R/PD1 [9, 15] | IC50 ([1]; read-out: 24 hr Dox Inducible IL2FLGluc 293FRT/TO: Mean IC50; Flp-In 293 T-REx cells, 24 hours with doxycycline; Table 1) [µM] | 48 hr H929 Viability Celltiter-Glo: Mean EC50 (nM) [2] | EC50 ([4]; U-266, 48 h, read-out: 48 hr U266 Viability Celltiter-Glo: Mean EC50 (nM)) [nM] | IC50 ([7]; read-out: 24 hr Dox Inducible PD1ssGluc 293FRT/TO: Mean IC50; Flp-In 293 T-REx cells, 24 hours with doxycycline; Table 1) [µM] | IC50 ([9]; read-out: 24hr Dox Inducible IL6R(ss + 10)Gluc 293FRT/TO: Mean IC50; Flp-In 293 T-REx cells, 24 hours with doxycycline; Table 1) [µM] | IC50 (CD47(ss + 10)Gluc; read-out: 24 hr Dox Inducible CD47(ss + 10)Gluc 293FRT/TO: Mean IC50; Flp-In 293 T-REx cells, 24 hours with doxycycline; Table 1) [µM]
1.04 | > 25 | 27 | > 25000 | 40 | 3 | 0.144 | 8 | 0.892 | 1.03 | O=C(Nc1nc(/C=C/c2ccc3occc3c2)cs1)c1cccn1Cc1ccnc(F)c1 [Compound B27, (E)-N-(4-(2-(benzofuran-5-yl)vinyl)thiazol-2-yl)-1-((2-fluoropyridin-4-yl)methyl)-1H-pyrrole-2-carboxamide] | 5.2 | 6 |  |  |  |  |  | 
> 25 | 17.5 | <1 | 24200 | 11 | 20 | 0.065 | <1 | > 25 | > 25 | [2H]c1nc(/C=C/c2csc(NC(=O)c3cccn3Cc3ccnc(F)c3)n2)cn1C(C)C [Compound B21] | >380 | >385 |  |  |  |  |  | 
7.13 | > 25 | <1 | > 25000 | 57 | 12 | 17.1 | <1 | > 25 | 15.6 | CN[C@H]1CC[C@H](/C=C/c2csc(NC(=O)c3cccn3Cc3ccncc3)n2)CC1 [Compound B12, N-(4-((E)-2-((1r,4r)-4-(methylamino)cyclohexyl)vinyl)thiazol-2-yl)-1-(pyridin-4-ylmethyl)-1H-pyrrole-2-carboxamide] | 0.4 | >1.5 |  |  |  |  |  | 
> 25 | > 25 | <1 | > 25000 | 4 | <1 | 0.05 | <1 | > 25 | > 25 | N#Cc1ccc(/C=C/c2csc(NC(=O)c3cccn3Cc3ccnc(F)c3)n2)nc1 [Compound B13, (E)-N-(4-(2-(5-cyanopyridin-2-yl)vinyl)thiazol-2-yl)-1-((2-fluoropyridin-4-yl)methyl)-1H-pyrrole-2-carboxamide] | >500 | >500 |  |  |  |  |  | 
8.24 | 5.11 | <1 | 8610 | 4 | 17 | 5.1 | <1 | 23.8 | > 25 | CC(=O)N[C@H]1CC[C@H](/C=C/c2csc(NC(=O)c3cccn3Cc3ccncc3)n2)CC1 [Compound B17] | 1.6 | 5 |  |  |  |  |  | 

Second part, the compound before the results:

Compound | IC50 [1, 10] [µM] | EC50 [2] [µM] | Liver Microsome Stability (Multiple Species): Human - % Remaining after 30 min w/ NADPH (%) [3] [%] | EC50 [4, 12] [nM] | Liver Microsome Stability (Multiple Species): Mouse - % Remaining after 30 min w/ NADPH (%) [5] [%] | Liver Microsome Stability (Multiple Species): Rat - % Remaining after 30 min w/ NADPH (%) [6] [%] | IC50 [7, 13] [µM] | Liver Microsome Stability (Multiple Species): Monkey - % Remaining after 30 min w/ NADPH (%) [8] [%] | IC50 [9, 14] [µM] | IC50 (CD47(ss + 10)Gluc; [16]) [µM] | 24 hr Dox Inducible IL2FLGluc 293FRT/TO: IL2/PD1 [1, 11] | 24hr Dox Inducible IL6R(ss + 10)Gluc 293FRT/TO: IL6R/PD1 [9, 15] | IC50 ([1]; read-out: 24 hr Dox Inducible IL2FLGluc 293FRT/TO: Mean IC50; Flp-In 293 T-REx cells, 24 hours with doxycycline; Table 1) [µM] | 48 hr H929 Viability Celltiter-Glo: Mean EC50 (nM) [2] | EC50 ([4]; U-266, 48 h, read-out: 48 hr U266 Viability Celltiter-Glo: Mean EC50 (nM)) [nM] | IC50 ([7]; read-out: 24 hr Dox Inducible PD1ssGluc 293FRT/TO: Mean IC50; Flp-In 293 T-REx cells, 24 hours with doxycycline; Table 1) [µM] | IC50 ([9]; read-out: 24hr Dox Inducible IL6R(ss + 10)Gluc 293FRT/TO: Mean IC50; Flp-In 293 T-REx cells, 24 hours with doxycycline; Table 1) [µM] | IC50 (CD47(ss + 10)Gluc; read-out: 24 hr Dox Inducible CD47(ss + 10)Gluc 293FRT/TO: Mean IC50; Flp-In 293 T-REx cells, 24 hours with doxycycline; Table 1) [µM]
CC(C)n1cnc(/C=C/c2csc(NC(=O)c3cc(Cl)cn3Cc3ccnc(F)c3)n2)c1Cl [Compound A1] | 2.02 | > 25 | 11 | > 25000 | 71 | 82 | 0.03 | 31 | 1.89 | 1.86 | 66 | 62 |  |  |  |  |  | 
[2H]C([2H])(c1ccnc(F)c1)n1cc(Cl)cc1C(=O)Nc1nc(/C=C/c2ncn(C3CC3)c2Cl)cs1 [Compound A11, (E)-4-chloro-N-(4-(2-(5-chloro-1-cyclopropyl-1H-imidazol-4-yl)vinyl)thiazol-2-yl)-1-((2-fluoropyridin-4-yl)methyl-d2)-1H-pyrrole-2-carboxamide] | 1.18 | 11.9 | 14 | > 25000 | 87 | 17 | 0.011 | 6 | 1.2 | 1.46 | 110 | 112 |  |  |  |  |  | 
COc1cc(C(=O)Nc2nc(/C=C/c3ncn(C(C)C)c3Cl)c(Cl)s2)n(Cc2ccnc(F)c2)c1 [Compound A6, (E)-N-(5-chloro-4-(2-(5-chloro-1-isopropyl-1H-imidazol-4-yl)vinyl)thiazol-2-yl)-1-((2-fluoropyridin-4-yl)methyl)-4-methoxy-1H-pyrrole-2-carboxamide] |  |  | 48 |  | 96 | 76 |  | 30 |  |  | 29 | 28 | 2.42 | I.A | > 25000 | 0.085 | 2.33 | 2.16
O=C(Nc1nc(/C=C/c2ncn(C3CC3)c2Cl)cs1)c1cc(O)cn1Cc1ccnc(F)c1 [Compound A18, (E)-N-(4-(2-(5-chloro-1-cyclopropyl-1H-imidazol-4-yl)vinyl)thiazol-2-yl)-1-((2-fluoropyridin-4-yl)methyl)-4-hydroxy-1H-pyrrole-2-carboxamide] | 7 | 24.7 | 1 | > 25000 | 33 | 10 | 0.295 | 2 | 5.53 | 6.41 | 24 | 19 |  |  |  |  |  | 
